Data as given in paper PMC4710522, “A Novel Triazolopyridine-Based Spleen Tyrosine Kinase Inhibitor That Arrests Joint Inflammation” (PLoS ONE, 2016).
“And” between values parts separate entries of the source, which are not always exact repeats. Equal values may be shown once.

What was measured:
[1] = system: rat collagen-induced arthritis model; conditions: 10 or 30 mg/kg b.i.d.; cited from earlier work
[2] = system: proinflammatory analytes in paw tissue; conditions: cited from earlier work
MSK2_h = molecular target: T1, MSK2_h (Homo sapiens, UniProt O75676); test: SelectScreen kinase assay; format: biochemical; conditions: KM ATP, read-out: % control
T1 construct: purchased Life Technologies (Invitrogen) SelectScreen, Z'-LYTE / Adapta
T1 sequence (O75676 whole entry): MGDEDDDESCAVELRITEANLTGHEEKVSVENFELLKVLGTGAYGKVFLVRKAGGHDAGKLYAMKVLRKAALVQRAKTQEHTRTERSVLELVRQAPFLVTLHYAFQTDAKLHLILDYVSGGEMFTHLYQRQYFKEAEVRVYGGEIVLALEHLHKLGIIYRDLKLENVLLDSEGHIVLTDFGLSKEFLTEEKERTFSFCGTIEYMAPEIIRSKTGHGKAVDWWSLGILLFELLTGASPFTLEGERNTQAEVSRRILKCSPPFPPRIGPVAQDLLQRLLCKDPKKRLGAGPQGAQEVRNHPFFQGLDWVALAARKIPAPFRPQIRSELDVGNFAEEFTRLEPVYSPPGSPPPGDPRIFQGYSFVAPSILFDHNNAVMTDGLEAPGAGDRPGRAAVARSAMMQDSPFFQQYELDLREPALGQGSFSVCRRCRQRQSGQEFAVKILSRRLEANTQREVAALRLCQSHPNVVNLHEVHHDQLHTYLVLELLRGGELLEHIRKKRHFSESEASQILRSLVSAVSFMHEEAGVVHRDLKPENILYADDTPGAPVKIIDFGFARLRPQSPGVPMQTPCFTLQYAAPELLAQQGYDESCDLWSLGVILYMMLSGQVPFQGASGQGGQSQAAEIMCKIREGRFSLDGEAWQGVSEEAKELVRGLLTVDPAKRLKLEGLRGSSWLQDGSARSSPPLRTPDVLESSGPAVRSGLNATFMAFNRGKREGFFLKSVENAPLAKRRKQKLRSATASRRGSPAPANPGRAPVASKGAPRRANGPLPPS

Cyp1A2 = molecular target: T2, Cyp1A2 (Homo sapiens, UniProt P05177); test: Vivid cytochrome P450 inhibition assay; format: in vitro ADME; conditions: data not shown
T2 construct: purchased Life Technologies (Vivid Assay kits)
T2 sequence (P05177 whole entry): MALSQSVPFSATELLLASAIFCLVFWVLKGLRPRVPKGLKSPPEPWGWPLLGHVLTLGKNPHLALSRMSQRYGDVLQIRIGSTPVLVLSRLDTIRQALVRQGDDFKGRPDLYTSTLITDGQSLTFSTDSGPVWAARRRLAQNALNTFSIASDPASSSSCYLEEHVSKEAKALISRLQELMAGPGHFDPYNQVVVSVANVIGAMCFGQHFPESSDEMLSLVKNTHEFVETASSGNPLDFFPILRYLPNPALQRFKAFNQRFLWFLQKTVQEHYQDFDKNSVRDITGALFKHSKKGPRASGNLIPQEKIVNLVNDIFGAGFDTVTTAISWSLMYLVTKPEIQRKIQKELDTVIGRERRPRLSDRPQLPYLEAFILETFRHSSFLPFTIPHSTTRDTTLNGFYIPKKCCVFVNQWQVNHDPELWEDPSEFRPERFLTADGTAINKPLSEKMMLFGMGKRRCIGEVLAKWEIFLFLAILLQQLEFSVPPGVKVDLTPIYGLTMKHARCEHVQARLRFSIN
Method: (§1) Syk kinase mode of inhibition studies, including parameters described in Fig 1, were conducted on the LC3000 platform by Caliper Life Sciences (Hopkinton, MA) according to standard protocols developed by the supplier. […] Non-kinase enzyme assays and GPCR, ion channel, and transporter binding assays were run by CEREP (France). Non-GLP manual patch clamp hERG assays were run by ChanTest (Cleveland, Ohio). Vivid® Assay kits (Life Technologies) were used to measure the cytochrome P450 inhibition of the compound against CYP3A, CYP2C9, CYP2C19, CYP2D6, and CYP1A2, as described.

Cyp2C9 = molecular target: T3, Cyp2C9 (Homo sapiens, UniProt P11712); test: Vivid cytochrome P450 inhibition assay; format: in vitro ADME; conditions: data not shown
T3 construct: purchased Life Technologies (Vivid Assay kits)
Method: as §1

Cyp2C19 = molecular target: T4, Cyp2C19 (Homo sapiens, UniProt P33261); test: Vivid cytochrome P450 inhibition assay; format: in vitro ADME; conditions: data not shown
T4 construct: purchased Life Technologies (Vivid Assay kits)
Method: as §1

Cyp2D6 = molecular target: T5, Cyp2D6 (Homo sapiens, UniProt P10635); test: Vivid cytochrome P450 inhibition assay; format: in vitro ADME; conditions: data not shown
T5 construct: purchased Life Technologies (Vivid Assay kits)
Method: as §1

Cyp3A4 = molecular target: T6, Cyp3A4 (Homo sapiens, UniProt P08684); test: Vivid cytochrome P450 inhibition assay; format: in vitro ADME; conditions: data not shown
T6 construct: purchased Life Technologies (Vivid Assay kits)
T6 sequence (P08684 whole entry): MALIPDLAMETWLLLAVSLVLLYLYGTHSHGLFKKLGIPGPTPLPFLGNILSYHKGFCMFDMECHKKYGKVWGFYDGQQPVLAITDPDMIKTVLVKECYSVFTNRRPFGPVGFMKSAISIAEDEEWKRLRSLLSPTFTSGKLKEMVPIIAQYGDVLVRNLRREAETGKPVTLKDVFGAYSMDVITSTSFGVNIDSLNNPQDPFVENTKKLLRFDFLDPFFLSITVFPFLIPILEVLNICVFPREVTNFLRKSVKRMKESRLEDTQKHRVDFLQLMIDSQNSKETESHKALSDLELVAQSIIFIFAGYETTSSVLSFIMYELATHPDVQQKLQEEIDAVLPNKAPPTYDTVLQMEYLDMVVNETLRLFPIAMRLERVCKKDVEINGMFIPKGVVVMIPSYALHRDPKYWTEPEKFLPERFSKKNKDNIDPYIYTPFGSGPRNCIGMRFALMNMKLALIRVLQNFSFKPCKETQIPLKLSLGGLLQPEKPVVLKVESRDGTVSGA
Method: as §1

Flt4_h = Flt4_h (Homo sapiens, UniProt P35916); test: SelectScreen kinase assay; format: biochemical
Flt4_h, sequence (P35916 25-1363): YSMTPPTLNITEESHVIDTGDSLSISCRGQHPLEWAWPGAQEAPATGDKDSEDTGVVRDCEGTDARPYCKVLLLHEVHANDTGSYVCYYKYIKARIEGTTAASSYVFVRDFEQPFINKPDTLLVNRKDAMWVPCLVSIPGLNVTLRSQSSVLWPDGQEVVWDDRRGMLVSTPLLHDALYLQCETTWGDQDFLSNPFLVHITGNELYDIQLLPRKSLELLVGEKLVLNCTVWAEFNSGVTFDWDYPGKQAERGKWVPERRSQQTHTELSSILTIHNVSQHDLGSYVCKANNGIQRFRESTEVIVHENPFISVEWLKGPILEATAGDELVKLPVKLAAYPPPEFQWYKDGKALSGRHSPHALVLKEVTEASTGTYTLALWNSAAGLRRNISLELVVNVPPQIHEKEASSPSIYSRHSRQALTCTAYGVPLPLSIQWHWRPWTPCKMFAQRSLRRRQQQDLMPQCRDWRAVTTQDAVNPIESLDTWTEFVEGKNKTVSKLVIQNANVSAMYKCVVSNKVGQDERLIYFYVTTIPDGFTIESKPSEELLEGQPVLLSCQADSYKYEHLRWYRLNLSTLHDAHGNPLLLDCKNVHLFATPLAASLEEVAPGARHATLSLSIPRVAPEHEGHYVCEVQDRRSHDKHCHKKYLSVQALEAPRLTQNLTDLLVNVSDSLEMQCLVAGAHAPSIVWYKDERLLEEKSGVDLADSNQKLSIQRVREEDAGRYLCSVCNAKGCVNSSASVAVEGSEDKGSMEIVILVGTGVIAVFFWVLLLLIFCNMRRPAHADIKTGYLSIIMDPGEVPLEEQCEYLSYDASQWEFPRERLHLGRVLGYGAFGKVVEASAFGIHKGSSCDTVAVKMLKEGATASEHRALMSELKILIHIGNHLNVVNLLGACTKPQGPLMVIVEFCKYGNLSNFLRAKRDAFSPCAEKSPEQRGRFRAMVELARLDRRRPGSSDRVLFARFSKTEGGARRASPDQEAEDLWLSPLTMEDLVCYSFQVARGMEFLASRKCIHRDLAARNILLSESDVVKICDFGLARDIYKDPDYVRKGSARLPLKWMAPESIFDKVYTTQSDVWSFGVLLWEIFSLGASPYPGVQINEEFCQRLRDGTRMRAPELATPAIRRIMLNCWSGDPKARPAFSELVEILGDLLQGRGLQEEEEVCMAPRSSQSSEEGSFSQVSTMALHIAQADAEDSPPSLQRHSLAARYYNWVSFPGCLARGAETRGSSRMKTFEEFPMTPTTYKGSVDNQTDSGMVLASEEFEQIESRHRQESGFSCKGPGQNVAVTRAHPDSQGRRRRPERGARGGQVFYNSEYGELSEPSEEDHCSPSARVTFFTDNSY

Rsk1_h = molecular target: T7, Rsk1_h (Homo sapiens, UniProt Q15418); test: SelectScreen kinase assay; format: biochemical; conditions: KM ATP, read-out: % control
T7 construct: purchased Life Technologies (Invitrogen) SelectScreen, Z'-LYTE / Adapta

FGFR4_h = molecular target: T8, FGFR4_h (Homo sapiens, UniProt P22455); test: SelectScreen kinase assay; format: biochemical; conditions: KM ATP, read-out: % control
T8 construct: purchased Life Technologies (Invitrogen) SelectScreen, Z'-LYTE / Adapta
T8 sequence (P22455 22-802): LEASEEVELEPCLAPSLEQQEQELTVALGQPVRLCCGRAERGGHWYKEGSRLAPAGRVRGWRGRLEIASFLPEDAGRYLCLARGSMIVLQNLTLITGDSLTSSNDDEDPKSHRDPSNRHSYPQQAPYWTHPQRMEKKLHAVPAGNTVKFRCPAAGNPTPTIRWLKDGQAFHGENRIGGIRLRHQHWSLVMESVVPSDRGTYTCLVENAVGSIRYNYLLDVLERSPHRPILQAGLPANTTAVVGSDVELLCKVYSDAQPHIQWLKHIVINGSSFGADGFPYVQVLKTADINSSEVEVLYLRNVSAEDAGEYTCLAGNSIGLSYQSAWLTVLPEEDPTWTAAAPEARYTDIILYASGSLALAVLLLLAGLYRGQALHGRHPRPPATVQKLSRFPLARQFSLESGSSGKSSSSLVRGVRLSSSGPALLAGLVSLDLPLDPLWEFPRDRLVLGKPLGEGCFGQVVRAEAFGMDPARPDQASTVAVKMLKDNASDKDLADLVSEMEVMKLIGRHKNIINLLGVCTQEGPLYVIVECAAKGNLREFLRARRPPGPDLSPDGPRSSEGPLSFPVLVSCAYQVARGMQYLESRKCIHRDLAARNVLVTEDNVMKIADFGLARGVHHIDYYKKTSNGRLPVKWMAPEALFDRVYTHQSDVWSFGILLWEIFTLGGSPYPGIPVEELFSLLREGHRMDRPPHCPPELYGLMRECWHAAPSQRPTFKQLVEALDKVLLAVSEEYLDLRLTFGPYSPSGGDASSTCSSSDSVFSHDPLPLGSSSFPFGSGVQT

PI3_Kinase-alpha_h = molecular target: T9, PI3_Kinase-alpha_h (Homo sapiens, UniProt P42336); test: SelectScreen kinase assay; format: biochemical; conditions: KM ATP, read-out: % control
T9 construct: purchased Life Technologies (Invitrogen) SelectScreen, Z'-LYTE / Adapta
Method: as §1
(§2) Kinase activity was measured using either the Z’-Lyte® or the Adapta® protocols as part of the SelectScreen™ profiling service offered at Life Technologies (Grand Island, NY). For the single point measurements (Part A), CC-509 was kept constant at 3 µM while ATP concentrations [ATP] used were at the KM for ATP (KM ATP) for that specific enyzme, at 10 or 100 µM ATP (10 ATP or 100 ATP, respectively), as indicated. Values expressed as percent control (% control) relative to DMSO-only wells (uninhibited, 100%).

PI3_Kinase-gamma_h = molecular target: T10, PI3_Kinase-gamma_h (Homo sapiens, UniProt P48736); test: SelectScreen kinase assay; format: biochemical; conditions: KM ATP, read-out: % control
T10 construct: purchased Life Technologies (Invitrogen) SelectScreen, Z'-LYTE / Adapta
Method: as §1, §2

JAK2 = molecular target: T11, JAK2 (Homo sapiens, UniProt O60674); test: JAK2 HTRF assay; format: biochemical
T11 construct: purchased Millipore 14-511
T11 sequence (O60674 whole entry): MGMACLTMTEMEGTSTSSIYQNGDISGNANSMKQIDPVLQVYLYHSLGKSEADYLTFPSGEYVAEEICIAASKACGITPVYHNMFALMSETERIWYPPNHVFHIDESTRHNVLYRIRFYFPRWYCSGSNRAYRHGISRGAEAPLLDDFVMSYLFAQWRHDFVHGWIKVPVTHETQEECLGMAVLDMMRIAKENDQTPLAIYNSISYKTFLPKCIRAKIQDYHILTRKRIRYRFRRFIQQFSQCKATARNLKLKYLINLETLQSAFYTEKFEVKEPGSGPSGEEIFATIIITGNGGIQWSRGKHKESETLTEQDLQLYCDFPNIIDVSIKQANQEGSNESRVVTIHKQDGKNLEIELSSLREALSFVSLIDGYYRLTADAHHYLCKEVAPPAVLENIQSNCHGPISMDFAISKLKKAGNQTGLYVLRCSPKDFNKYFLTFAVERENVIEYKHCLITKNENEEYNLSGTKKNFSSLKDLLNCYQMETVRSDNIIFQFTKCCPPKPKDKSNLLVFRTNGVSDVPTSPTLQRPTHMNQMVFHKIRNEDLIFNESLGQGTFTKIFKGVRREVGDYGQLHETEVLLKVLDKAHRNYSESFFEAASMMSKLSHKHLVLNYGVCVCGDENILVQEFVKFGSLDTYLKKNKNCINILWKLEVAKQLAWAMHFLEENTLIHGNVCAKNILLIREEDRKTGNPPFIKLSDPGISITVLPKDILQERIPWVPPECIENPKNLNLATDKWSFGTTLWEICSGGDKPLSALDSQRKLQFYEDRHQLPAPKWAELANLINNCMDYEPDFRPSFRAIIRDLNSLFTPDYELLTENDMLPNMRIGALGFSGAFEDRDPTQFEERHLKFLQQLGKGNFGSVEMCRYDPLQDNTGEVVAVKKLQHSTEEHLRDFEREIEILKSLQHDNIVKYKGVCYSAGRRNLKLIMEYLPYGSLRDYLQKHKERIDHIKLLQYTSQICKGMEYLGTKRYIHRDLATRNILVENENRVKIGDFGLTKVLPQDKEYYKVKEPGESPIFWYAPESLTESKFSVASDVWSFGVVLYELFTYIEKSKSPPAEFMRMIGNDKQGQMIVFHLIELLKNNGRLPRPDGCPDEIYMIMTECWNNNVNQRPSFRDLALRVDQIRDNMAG
Method: CC-509 was prepared at a concentration of 1.5 mM in DMSO followed by 3-fold dilutions in Greiner […] polypropylene plates. A 1:4 dilution of compounds by 8 μL/well transfer from the polypropylene plates to 24 μL/well Assay Buffer (50 mM HEPES pH 7.6, 1 mM DTT, 10 mM MgCl2, 0.01% Triton X100, 0.01% BSA and 0.1 mM EDTA) in Costar 3573 384 well black plates was then performed. Kinase (13 μL/well of 4.6 ng/mL JAK2, Millipore 14–511) or Assay Buffer only (background controls) were added to Costar 3573 384-well black plates and compound (2 μL/well) was added from the 1:4 dilution plate. […] Time resolved fluorescence was read in assay plates on a PerkinElmer EnVision. […]
For the TEL-Syk assay, the intensity values for the 700 and 800 channel were exported as text files in ActivityBase (IDBS, Guildford, UK) to derive the ratios that reflect kinase activity. […] For the JAK2 HEL and Ramos NFAT β-lactamase assays, the fluorescence values obtained at 460 nm and 530 nm were exported into ActivityBase to calculate response ratios. […] Evans blue dye extravasation was expressed as mean ± SEM and % inhibition for the test article groups was normalized to the cromolyn positive control. […] The mean data from each group was plotted and either the AUC(day 11–18) or % inhibition on day 18 was calculated. Data is expressed as mean ± SEM of each group with n = 6–12. […]

Compound	clinical paw score in rat CIA [1]	expression of MCP-1, KC, IL-6 and IL-1β in the CIA model [2]	remaining activity at 3 µM (MSK2_h) [%]	inhibition of Cyp450 activity (Cyp1A2)	inhibition of Cyp450 activity (Cyp2C9)	inhibition of Cyp450 activity (Cyp2C19)	inhibition of Cyp450 activity (Cyp2D6)	inhibition of Cyp450 activity (Cyp3A4)	remaining activity at 3 µM (Flt4_h; 3 µM, KM ATP, read-out: % control) [%]	IC50 (Flt4_h; 10-point dose-response, commercial vendor)	remaining activity at 3 µM (Rsk1_h) [%]	remaining activity at 3 µM (FGFR4_h) [%]	remaining activity at 3 µM (PI3_Kinase-alpha_h) [%]	remaining activity at 3 µM (PI3_Kinase-gamma_h) [%]	fold less potent than R406, Jak2 enzyme (JAK2; data not shown) [fold]	IC50 (JAK2; in-house, mean ± SD) [µM]
COc1cc(Nc2ncc(F)c(Nc3ccc4c(n3)NC(=O)C(C)(C)O4)n2)cc(OC)c1OC [R406, reference compound]	significantly reduced	inhibited	–	–	–	–	–	–	–	–	–	–	–	–	–	–
c1cc(CC2CCOCC2)n2nc(Nc3ccc4c(NC5CCOCC5)n[nH]c4c3)nc2c1 [CC-509, [3-(2H-3,4,5,6-tetrahydropyran-4-ylamino)(1H-indazol-6-yl)][5-(2H-3,4,5,6-tetrahydropyran-4-ylmethyl)(2H-1,2,4-triazolo[1,5-a]pyridin-2-yl)]amine]	–	–	81	did not inhibit	did not inhibit	did not inhibit	did not inhibit	did not inhibit	1	0.05 µM and 0.0539 µM	60	68	81	61	22	0.019 ± 0.002
